Laboratory results: patent US10160785B2, “Antimicrobial peptides and their use for the treatment of topical infections” (priority 2015, dated 2018)
Where a SMILES comes first, the peptide text is derived from it.

Experiments:
[1] = system: S. aureus (Liberec) biofilm; experiment: Bacterial biofilm, remaining metabolic activity (MTT); type: cell-based, Staphylococcus aureus; conditions: remaining metabolic activity of biofilm, 20 h
Experimental: (§1) Inoculum of S. aureus (Liberec) or P. aeruginosa (Liberec) cultivated overnight in BHI medium was diluted with fresh BHI medium containing 1% glucose to a final concentration to be ca. 10^8 CFU/ml. Then this was pipetted (100 μl) to 96-multiwell polystyrene plate which was incubated at 37° C. under rotary shaking (300 RPM) for 24 h. Medium without bacteria in the wells was used as a negative control. Supernatant from each well was drained and the biofilm formed on the bottom and on the walls of the wells was cautiously washed three times by sterile physiological solution (300 μl). The peptides tested in the concentrations of 1-128 μmol.l^−1 were prepared by twofold serial dilution of their stock solution (1 mmol.l^−1) in fresh BHI medium and then pipetted (100 μl) to the wells with formed biofilms. The biofilms covered by BHI medium without peptide were used as a positive control. The plates were then incubated for 20 h as described above. After that the liquid was drained out and wells were washed twice with sterile physiological solution.
(§2) The metabolic activity of surviving bacterial cells in the biofilm was determined by staining with MTT (3-(4,5-dimethylthiazol-2-yl)-2,5-diphenyl-2H-tetrazolium bromide) as follows: The mixture of BHI medium (100 μl) and 10 μl of the stock solution of MTT (5 mg/ml in physiological solution) was added to each well and the plate was incubated 40 min at 37° C. The liquid was drained out and the insoluble formazan crystals formed by reduction inside the biofilm were dissolved with dimethyl sulphoxide (100 μl). The intensity of staining in each well was measured as absorbance at 540 nm on a Tecan Infinite M200 Pro reader (Tecan GmbH, Austria). Remaining activity of surviving cells inside the biofilm was expressed for each well in percentage according to the following equation:
(§3) [formula] where A is the absorbance of the tested compound, ABL is the absorbance of the negative control, and AC is the absorbance of control biofilm.

[2] = system: P. aeruginosa (Liberec) biofilm; experiment: as above; type: cell-based, Pseudomonas aeruginosa; conditions: remaining metabolic activity of biofilm, 20 h
Experimental: as §1, §2, §3

[3] = system: Candida albicans (Olomouc) biofilm; experiment: C. albicans biofilm, remaining metabolic activity (XTT); type: cell-based
Experimental: Candida albicans (Olomouc) was sub-cultured overnight in YPD medium (10 g yeast extract (DIFCO, USA), 20 g peptone (OXOID), 20 g glucose (Penta) dissolved in 1 L of distilled water) at constant shaking (100 RPM) at 37° C. Next day, the overnight culture was diluted 1:100 into fresh YPD medium and incubated at constant shaking (200 RPM) at 37° C. until the mid-exponential growth phase was reached. Then the cells were harvested and washed twice by centrifugation in physiological solution (5000 RPM; 5 min). Cells were suspended in sterile salt solution and their optical density was determined at 600 nm.
A final yeast suspension was prepared at a cell density of 1×10^6 CFU (corresponding to optical density of 0.17 at 600 nm) in RPMI 1640 medium with L-glutamine (BioSera), NaHCO3 (2 g/l; Penta) and 0.165 mol.l^−1 MOPS (Duchefa)—further as RPMI broth medium 1.
Biofilms were formed on commercially available sterile, polystyrene, flat-bottomed, 96-well microtiter plates (TPP, SW). Cell suspension (100 μl) was pipetted into selected wells of a microtiter plate and incubated without shaking for 2 hours at 37° C. Afterwards, the wells were washed twice with sterile PBS buffer (1.44 g Na2HPO4, 0.24 g KH2PO4, 0.2 g KCl and 8 g NaCl in 1 l distilled water, pH=7; Penta). Fresh RPMI broth medium 1 (100 μl) was added to each well and the plate was sealed with parafilm and incubated without shaking for 48 hours at 37° C.
Planktonic and non-adherent cells were removed by threefold washing of the biofilm with sterile PBS buffer (200 μl). A twofold serial dilution was used to reach required peptide concentration (in RPMI broth medium 1) in each well. Peptide concentrations range was between 0.39-200 μmol.l^−1. Plates were then sealed with parafilm and incubated for 20 hours at 37° C.
The metabolic activity of surviving Candida cells in the treated biofilm was determined by staining with XTT (2,3-Bis(2-methoxy-4-nitro-5-sulphophenyl)-2H-tetrazolium-5-carboxanilide). Stock solution of PMS (phenazine methosulfate; 7.5 g/l; SIGMA, Czech Republic) stored at −20° C. was diluted in PBS buffer 1:100. Diluted PMS was further mixed (2:25) with stock solution of XTT (0.5 g/l; Alchimica, Slovakia) dissolved in PBS/RPMI broth medium (1:1). Mixture (100 μl) of PMS and XTT was added into treated biofilm in the wells and incubated for 90 min at 37° C. Then the intensity of staining in each well was measured as absorbance at 540 nm on a Tecan Infinite M200 Pro reader (Tecan GmbH, Austria). Remaining metabolic activity of the cells in the biofilm was expressed for each well in percentage and calculated as follows:
[formula] where A is the absorbance of tested compound, ABL is the absorbance of negative control and AC is the absorbance of control untreated biofilm. The non-inoculated wells served as negative control. Inoculated wells not treated with compound served as positive control. Amphotericin B was used as control drug to ensure quality of Candida albicans. The values of remaining metabolic activity of treated biofilms are shown at Table 5.

in vitro = conditions: human
Experimental: The peptides in the concentrations 2-200 μmol.l^−1 were incubated with the suspension of human red blood cells (5% v/v) for 1 h at 37° C. in a physiological solution at a final volume of 0.2 ml. The samples were then centrifuged for 5 min at 250 g, and the absorbance of the supernatant was determined at 540 nm. Supernatants of red blood cells suspended in physiological solution and in 0.2% (v/v) TRITON X100 in physiological solution served as controls for zero hemolysis (blank) and 100% hemolysis, respectively. Hemolytic activity is expressed as the peptide concentration required for lysis of 50% of human erythrocytes in the assay (LC50).

[4] = peptide concentration 8 μmol · l^−1
[5] = peptide concentration 16 μmol · l^−1
[6] = peptide concentration 32 μmol · l^−1
[7] = peptide concentration 64 μmol · l^−1
[8] = peptide concentration 128 μmol · l^−1
[9] = peptide concentration 6.25 μmol · l^−1, 20 hours
[10] = peptide concentration 12.5 μmol · l^−1, 20 hours
[11] = peptide concentration 25 μmol · l^−1, 20 hours
[12] = peptide concentration 50 μmol · l^−1, 20 hours
[13] = peptide concentration 100 μmol · l^−1, 20 hours
[14] = peptide concentration 200 μmol · l^−1, 20 hours

Compound	Metabolic activity (%) S. aureus (Liberec) [1, 4]	Metabolic activity (%) S. aureus (Liberec) [1, 5]	Metabolic activity (%) S. aureus (Liberec) [1, 6]	Metabolic activity (%) S. aureus (Liberec) [1, 7]	Metabolic activity (%) S. aureus (Liberec) [1, 8]	Metabolic activity (%) P. aeruginosa (Liberec) [2, 4]	Metabolic activity (%) P. aeruginosa (Liberec) [2, 5]	Metabolic activity (%) P. aeruginosa (Liberec) [2, 6]	Metabolic activity (%) P. aeruginosa (Liberec) [2, 7]	Metabolic activity (%) P. aeruginosa (Liberec) [2, 8]	Metabolic activity of C. albicans (%) [3, 9]	Metabolic activity of C. albicans (%) [3, 10]	Metabolic activity of C. albicans (%) [3, 11]	Metabolic activity of C. albicans (%) [3, 12]	Metabolic activity of C. albicans (%) [3, 13]	Metabolic activity of C. albicans (%) [3, 14]	CC50 at 1 h (in vitro)	HC50 at 1 h (in vitro)
NCC[C@H](O)C(=O)N[C@@H]1C[C@H](N)[C@@H](O[C@H]2O[C@H](CN)[C@@H](O)[C@H](O)[C@H]2O)[C@H](O)[C@H]1O[C@H]1O[C@H](CO)[C@@H](O)[C@H](N)[C@H]1O [Amikacin, reference compound]	95.4%	102.4%	108.7%	82.4%	104.0%	80.0%	62.9%	40.4%	20.3%	11.8%	–	–	–	–	–	–	–	–
CC[C@@H](C)[C@@H](NC(=O)CN)C(=O)N[C@H](CC(C)C)C(=O)N[C@H](CO)C(=O)N[C@H](CO)C(=O)N[C@H](CC(C)C)C(=O)N[C@H](CC(C)C)C(=O)N[C@H](CCCCN)C(=O)N[C@H](CCCCN)C(=O)N[C@H](CC(C)C)C(=O)N[C@H](CCCCN)C(=O)N[C@H](CCCCN)C(=O)N[C@@H](C(=O)N[C@@H](C(=O)N[C@H](C)C(=O)N[C@H](CCCCN)C(N)=O)[C@H](C)CC)[C@H](C)CC [IV] (HELM PEPTIDE1{G.[dI].[dL].[dS].[dS].[dL].[dL].[dK].[dK].[dL].[dK].[dK].[dI].[dI].[dA].[dK].[am]}$$$$V2.0)	65.5%	34.2%	7.1%	3.0%	0.0%	56.5%	69.5%	56.0%	59.6%	21.7%	106.9%	37.2%	6.0%	2.3%	2.1%	0.5%	333 µM	–
CN[C@H](CC(C)C)C(=O)N[C@H]1C(=O)N[C@@H](CC(N)=O)C(=O)N[C@H]2C(=O)N[C@H]3C(=O)N[C@H](C(=O)N[C@H](C(=O)O)c4cc(O)cc(O)c4-c4cc3ccc4O)[C@H](O)c3ccc(c(Cl)c3)Oc3cc2cc(c3O[C@@H]2O[C@H](CO)[C@@H](O)[C@H](O)[C@H]2O[C@H]2C[C@](C)(N)[C@H](O)[C@H](C)O2)Oc2ccc(cc2Cl)[C@H]1O [Vancomycin, reference compound]	52.8%	15.9%	9.7%	8.5%	6.3%	–	–	–	–	–	–	–	–	–	–	–	–	–
CC[C@@H](C)[C@@H](NC(=O)CN)C(=O)N[C@H](CC(C)C)C(=O)N[C@H](CO)C(=O)N[C@H](CO)C(=O)N[C@H](CC(C)C)C(=O)N[C@H](Cc1c[nH]c2ccccc12)C(=O)N[C@H](CCCCN)C(=O)N[C@H](CCCCN)C(=O)N[C@H](CC(C)C)C(=O)N[C@H](CCCCN)C(=O)N[C@H](CCCCN)C(=O)N[C@@H](C(=O)N[C@@H](C(=O)N[C@H](C)C(=O)N[C@H](CCCCN)C(N)=O)[C@H](C)CC)[C@H](C)CC [XIII] (HELM PEPTIDE1{G.[dI].[dL].[dS].[dS].[dL].[dW].[dK].[dK].[dL].[dK].[dK].[dI].[dI].[dA].[dK].[am]}$$$$V2.0)	71.6%	33.8%	21.5%	20.4%	5.3%	71.2%	65.8%	61.2%	73.6%	23.0%	78.3%	56.9%	37.2%	10.9%	5.8%	4.9%	191 µM	–
H-GILSSLLKKLKKIIAK-NH2 [III]	87.8%	89.6%	78.4%	15.9%	2.4%	–	–	–	–	–	104.7%	113.6%	87.2%	31.1%	28.4%	0.0%	284 µM	–
H-GILSSLWKKLKKIIAK-NH2 [XII]	52.2%	31.5%	18.9%	14.7%	1.0%	77.3%	69.3%	66.9%	44.4%	57.9%	86.8%	80.3%	94.8%	63.6%	6.2%	3.2%	197 µM	–
H-GIMSSLMKKLAAHIKK-NH2 [VIII]	–	–	–	–	–	–	–	–	–	–	–	–	–	–	–	–	–	> 400 µM
